Experimental data reported in patent US8835469B2 (Cadila Healthcare Limited, priority 2009, dated 2014).
Blank lines part the entries; values can stand above or below the molecule they belong to.

Legend:
[1] = target: T1, glucokinase (GK) enzyme (Homo sapiens, UniProt P35557); test: In-vitro glucokinase (GK) activation assay (coupled with glucose-6-phosphate dehydrogenase, absorbance at 340); type: biochemical; settings: glucose 2.5 mM; for activity at 0.1 µM: 0.1 uM compound; for activity at 0.1 µM / activity at 1 µM / activity at 5 µM / activity at 10 µM: read-out: % of GK activity wrt DMSO; for activity at 1 µM: 1 uM compound; for activity at 5 µM: 5 uM compound; for activity at 10 µM: 10 uM compound; for EC50: GK enzyme 0.2 units, ATP 1 mM
T1 sequence (P35557 1-465): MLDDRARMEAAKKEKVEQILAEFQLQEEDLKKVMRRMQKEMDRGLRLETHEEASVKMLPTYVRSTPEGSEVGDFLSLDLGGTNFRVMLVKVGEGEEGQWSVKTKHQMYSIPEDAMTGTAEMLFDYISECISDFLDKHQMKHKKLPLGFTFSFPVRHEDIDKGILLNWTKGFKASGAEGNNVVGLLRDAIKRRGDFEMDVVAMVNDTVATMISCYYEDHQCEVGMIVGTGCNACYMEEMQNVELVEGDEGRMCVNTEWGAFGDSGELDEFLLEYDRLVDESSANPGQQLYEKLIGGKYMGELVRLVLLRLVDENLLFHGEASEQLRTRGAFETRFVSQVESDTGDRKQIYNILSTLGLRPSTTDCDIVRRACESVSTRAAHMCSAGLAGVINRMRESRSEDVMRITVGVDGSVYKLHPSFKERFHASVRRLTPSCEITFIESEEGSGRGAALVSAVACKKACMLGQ
Description: The compound of the invention was incubated with glucokinase (GK) enzyme (0.2 units) for 10 minutes in assay buffer at 26° C. After incubation, addition of glucose-6-phosphate dehydrogenase (2.5 units), ATP (1 mM) and glucose (2.5 mM). Absorbance is measured at 340 nm for 15 minutes with 10 second interval using UV transparent plate in kinetic mode on Spectramax-190 at 30° C.

[2] = test system: Male C57 mice; test: Oral glucose tolerance test (OGTT), overnight fasted; type: in vivo; settings: for % change in glucose levels Vs Control: treated at −30 min, oral glucose load 3 g/kg at 0 min; for % change in glucose levels Vs Control, Mean: Mean over the time points, oral glucose load 3 g/kg
Description: Effect of Glucokinase Activators (GKAs) of the Present Invention on Glucose Reduction Determined by Oral Glucose Tolerence Test (OGTT):
Male C57 mice, aged 8-10 weeks were fasted overnight and subjected to the treatment of selected GK activator at time denoted as −30 min. At time 0 min, mice were given oral glucose load of 3 g/kg, and the glucose excursion was observed upto 120 min. The percentage change against the change in glucose levels of control are mentioned in the table 2.

Compound: Cc1nnc(-c2ccc(Oc3cc(O[C@@H]4CCN(C)C4=O)cc(C(=O)Nc4nccs4)c3)cc2)o1 [Example 77, (R)-3-(4-(5-methyl-1,3,4-oxadiazol-2-yl)phenoxy)-5-((1-methyl-2-oxopyrrolidin-3-yl)oxy)-N-(thiazol-2-yl)benzamide]
activity at 0.1 µM [1]: 112% | activity at 1 µM [1]: 141% | activity at 5 µM [1]: 230% | activity at 10 µM [1]: 261% | EC50 [1]: 356 nM | % change in glucose levels Vs Control ([2]; 0 min Vs −30 min): −4.8 ± 7.5% | % change in glucose levels Vs Control ([2]; 30 min Vs −30 min): −15.1 ± 6.6% | % change in glucose levels Vs Control ([2]; 60 min Vs −30 min): −13.9 ± 7.3% | % change in glucose levels Vs Control ([2]; 120 min Vs −30 min): −22.0 ± 3.3% | % change in glucose levels Vs Control, Mean [2]: −11.2%

Compound: Cc1nnc(-c2ccc(Oc3cc(OC4CCN(C)C4=O)cc(C(=O)Nc4nc(-c5ccccc5)cs4)c3)cc2)o1 (stereo not shown) [Example 37, 3-(4-(5-Methyl-1,3,4-oxadiazol-2-yl)phenoxy)-5-((1-methyl-2-oxopyrrolidin-3-yl)oxy)-N-(4-phenylthiazol-2-yl)benzamide]
activity at 0.1 µM [1]: 107% | activity at 1 µM [1]: 151% | activity at 5 µM [1]: 290% | activity at 10 µM [1]: 329% | % change in glucose levels Vs Control ([2]; 0 min Vs −30 min): 11.9 ± 8.2% | % change in glucose levels Vs Control ([2]; 30 min Vs −30 min): −26.5 ± 12.8% | % change in glucose levels Vs Control ([2]; 60 min Vs −30 min): −43.5 ± 3.8% | % change in glucose levels Vs Control ([2]; 120 min Vs −30 min): −24.9 ± 5.3% | % change in glucose levels Vs Control, Mean [2]: −17.0%

Continued by falling EC50 [1], values first:

activity at 0.1 µM [1]: 186% | activity at 1 µM [1]: 284% | activity at 5 µM [1]: 312% | activity at 10 µM [1]: 316% | EC50 [1]: 196 nM
Compound: CCOC(=O)Cc1csc(NC(=O)c2cc(Oc3ccc(-c4nnc(C)o4)cc3)cc(OC3CCN(C)C3=O)c2)n1 (stereo not shown) [Example 3]
% change in glucose levels Vs Control ([2]; 0 min Vs −30 min): −18.8 ± 5.8% | % change in glucose levels Vs Control ([2]; 30 min Vs −30 min): −4.1 ± 6.0% | % change in glucose levels Vs Control ([2]; 60 min Vs −30 min): −3.9 ± 4.3% | % change in glucose levels Vs Control ([2]; 120 min Vs −30 min): −15.8 ± 3.7% | % change in glucose levels Vs Control, Mean [2]: −10.6%

activity at 0.1 µM [1]: 205% | activity at 1 µM [1]: 227% | activity at 5 µM [1]: 233% | activity at 10 µM [1]: 236% | EC50 [1]: 40 nM
Compound: Cc1nnc(-c2ccc(Oc3cc(OC4CCN(C)C4=O)cc(C(=O)Nc4ncc(C)s4)c3)cc2)o1 (stereo not shown) [Example 2, 3-(4-(5-Methyl-1,3,4-oxadiazol-2-yl)phenoxy)-5-(1-methyl-2-oxopyrrolidin-3-yloxy)-N-(5-methylthiazol-2-yl)benzamide]
% change in glucose levels Vs Control ([2]; 0 min Vs −30 min): −34.5 ± 3.2% | % change in glucose levels Vs Control ([2]; 30 min Vs −30 min): −13.5 ± 8.8% | % change in glucose levels Vs Control ([2]; 60 min Vs −30 min): −49.6 ± 11.2% | % change in glucose levels Vs Control ([2]; 120 min Vs −30 min): −53.2 ± 3.1% | % change in glucose levels Vs Control, Mean [2]: −37.7%

activity at 0.1 µM [1]: 276% | activity at 1 µM [1]: 309% | activity at 5 µM [1]: 316% | activity at 10 µM [1]: 309% | EC50 [1]: 21 nM
Compound: Cc1nnc(-c2ccc(Oc3cc(OC4CCN(C)C4=O)cc(C(=O)Nc4nccs4)c3)cc2)o1 (stereo not shown) [Example 1, 3-(4-(5-Methyl-1,3,4-oxadiazol-2-yl)phenoxy)-5-(1-methyl-2-oxopyrrolidin-3-yloxy)-N-(thiazol-2-yl)benzamide]
% change in glucose levels Vs Control ([2]; 0 min Vs −30 min): −32.7 ± 2.8% | % change in glucose levels Vs Control ([2]; 30 min Vs −30 min): 3.3 ± 9.7% | % change in glucose levels Vs Control ([2]; 60 min Vs −30 min): −39.5 ± 7.0% | % change in glucose levels Vs Control ([2]; 120 min Vs −30 min): −24.3 ± 9.0% | % change in glucose levels Vs Control, Mean [2]: −23.3%
